Experimental data taken from patent publication US6635653B2 (priority 2001, dated 2003).
Where “and” joins values, the source holds several entries; their conditions need not be identical. Identical values can stand only once. Like-named read-outs stand apart in the source and are kept apart here.

How the values were obtained:
[1] = target: Mu opioid receptor (Homo sapiens, UniProt P35372); experiment: Affinity at the μ receptor ([35S]GTPγS binding assay, membranes); conditions: read-out: Mu Receptor Affinity calc Ki
Description: Affinity at the μ receptor for compounds was obtained according to the following assay:
Mu opioid receptor membrane solution was prepared by sequentially adding final concentrations of 0.075 μg/μl of the desired membrane protein, 10 μg/ml saponin, 3 μM GDP and 0.20 nM [^35S]GTPγS to binding buffer (100 mM NaCl, 10 mM MgCl2, 20 mM HEPES, pH 7.4) on ice. The prepared membrane solution (190 μl/well) was transferred to 96-shallow well polypropylene plates containing 10 μl of 20×concentrated stock solutions of agonist prepared in DMSO. Plates were incubated for 30 min at room temperature with shaking. Reactions were terminated by rapid filtration onto 96-well Unifilter GF/B filter plates (Packard) using a 96-well tissue harvester (Brandel) and followed by three filtration washes with 200 μl ice-cold binding buffer (10 mM NaH2PO4, 10 mM Na2HPO4, pH 7.4). Filter plates were subsequently dried at 50° C. for 2-3 hours. Fifty μl/well scintillation cocktail (MicroScint20, Packard) was added and plates were counted in a Packard Top-Count for 1 min/well.
Data were analyzed using the curve fitting functions in GraphPad PRISM™, v.3.0 and the results for several compounds are set forth in table 2 below: […]

[2] = target: T1, human opioid receptor-like receptor (ORL-1) (Homo sapiens, UniProt P41146); experiment: biochemical; format: binding
T1 construct: host or cells: HEK-293
T1 sequence (P41146 whole entry): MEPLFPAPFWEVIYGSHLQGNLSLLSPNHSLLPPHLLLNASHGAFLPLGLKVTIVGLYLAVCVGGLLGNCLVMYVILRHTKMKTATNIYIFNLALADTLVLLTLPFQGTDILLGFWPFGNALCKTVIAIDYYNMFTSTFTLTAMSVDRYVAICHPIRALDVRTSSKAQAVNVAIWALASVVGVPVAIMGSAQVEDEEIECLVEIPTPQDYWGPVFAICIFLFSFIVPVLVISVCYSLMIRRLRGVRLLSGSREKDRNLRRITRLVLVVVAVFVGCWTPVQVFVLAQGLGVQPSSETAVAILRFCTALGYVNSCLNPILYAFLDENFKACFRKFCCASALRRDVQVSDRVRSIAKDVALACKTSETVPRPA

Sequence of Mu opioid receptor (P35372 whole entry, species assumed): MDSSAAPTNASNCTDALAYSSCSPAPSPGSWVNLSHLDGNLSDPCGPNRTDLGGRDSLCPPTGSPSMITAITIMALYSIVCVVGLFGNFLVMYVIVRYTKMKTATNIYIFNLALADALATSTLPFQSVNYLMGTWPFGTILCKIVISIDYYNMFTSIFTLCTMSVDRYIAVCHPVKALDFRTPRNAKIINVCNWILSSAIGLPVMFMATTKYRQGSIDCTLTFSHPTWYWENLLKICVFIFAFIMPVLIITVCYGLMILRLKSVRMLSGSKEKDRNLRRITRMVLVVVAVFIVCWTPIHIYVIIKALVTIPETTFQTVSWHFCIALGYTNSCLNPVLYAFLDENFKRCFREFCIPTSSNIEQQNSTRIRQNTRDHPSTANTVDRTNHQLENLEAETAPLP

Structure (SMILES)	Ki ([2]; Nociceptin Affinity calc Ki)	further results
O=C1NNC(c2ccccc2)C12CCN(C1CCc3ccccc3C1)CC2 (centres unmarked) [8-(1,2,3,4-tetrahydro-2-naphthyl)-1-phenyl-2,3,8-triazospiro[4.5]decan-4-one]		Ki [1]: 115 nM
O=C1NN=C(c2ccccc2)C12CCN(CCC(c1ccccc1)c1ccccc1)CC2 [8-(3,3-Bis(phenyl)propyl)-4-phenyl-2,3,8-triazospiro[4.5]dec-3-en-1-one]	75 nM	
CCCC1CCC(N2CCC3(CC2)C(=O)NN=C3c2ccccc2)CC1 (centres unmarked) [8-(4-propylcyclohexyl)-4-phenyl-2,3,8-triazospiro[4.5]dec-3-en-1-one]	29.7 nM	
CC(C)CCC(C)N1CCC2(CC1)C(=O)NN=C2c1ccccc1 (centres unmarked) [8-(5-methylhex-2-yl)-4-phenyl-2,3,8-triazospiro[4.5]dec-3-en-1-one]	11.5 nM	
O=C1NN=C(c2ccccc2)C12CCN(C1c3ccccc3CCc3ccccc31)CC2 [8-(10,11-Dihydro-5H-dibenzo[a,d]-cyclohepten-5-yl)-4-phenyl-2,3,8-triazospiro[4.5]dec-3-en-1-one]	282 nM	
O=C1NNC(c2ccccc2)C12CCN(Cc1ccccc1)CC2 (centres unmarked) [8-(benzyl)-1-phenyl-2,3,8-triazospiro[4.5]decan-4-one]		Ki [1]: 56 nM
O=C1NN=C(c2ccccc2)C12CCN(Cc1ccccc1)CC2 [8-(benzyl)-4-phenyl-2,3,8-triazospiro[4.5]dec-3-en-1-one]	293 nM	
O=C1NNC(c2ccccc2)C12CCN(CC1CCCCCCC1)CC2 (centres unmarked) [8-(cyclooctylmethyl)-1-phenyl-2,3,8-triazospiro[4.5]decan-4-one]		Ki [1]: 191 nM
O=C1NN=C(c2ccccc2)C12CCN(CC1CCCCCCC1)CC2 [8-(cyclooctylmethyl)-4-phenyl-2,3,8-triazospiro[4.5]dec-3-en-1-one]	8.1 nM and 61 nM	
O=C1NN=C(c2ccccc2)C12CCN(C1CCC3CCCCC3C1)CC2 (centres unmarked) [8-(decahydro-2-naphthyl)-4-phenyl-2,3,8-triazospiro[4.5]dec-3-en-1-one]	1.1 nM	
O=C1NN=C(c2ccccc2)C12CCN(Cc1ccc(OCc3ccccc3)cc1)CC2 [8-(p-benzyloxybenzyl)-4-phenyl-2,3,8-triazospiro[4.5]dec-3-en-1-one]	138 nM	
O=C1NN=C(c2ccccc2)C12CCN(Cc1ccc(-c3ccccc3)cc1)CC2 [8-(p-phenylbenzyl)-4-phenyl-2,3,8-triazospiro[4.5]dec-3-en-1-one]	7170 nM	
O=C1NN=C(c2ccccc2)C12CCN(CCCC(c1ccc(F)cc1)c1ccc(F)cc1)CC2 [8-[4,4-Bis(4-fluorophenyl)butyl]-4-phenyl-2,3,8-triazospiro[4.5]dec-3-en-1-one]	2590 nM	
CC(C)C1CCC(N2CCC3(CC2)C(=O)NN=C3c2ccccc2)CC1 (centres unmarked) [8-[4-(2-propyl)-cyclohexyl]-4-phenyl-2,3,8-triazospiro[4.5]dec-3-en-1-one]	1.5 nM	
O=C1NNC(c2ccccc2)C12CCN(Cc1ccc3ccccc3c1)CC2 (centres unmarked) [8-[(naphth-2-yl-methyl)]-1-phenyl-2,3,8-triazospiro[4.5]decan-4-one]		Ki [1]: 84 nM
O=C1NN=C(c2ccccc2)C12CCN(Cc1ccc3ccccc3c1)CC2 [8-[(naphth-2-yl-methyl)]-4-phenyl-2,3,8-triazospiro[4.5]dec-3-en-1-one]	402 nM	
O=C1NN=C(c2ccccc2)C12CCN(C1CC3CCC1C3)CC2 (centres unmarked) [8-norbornyl-4-phenyl-2,3,8-triazospiro[4.5]dec-3-en-1-one]		Ki ([2]; read-out: Nociceptin Affinity calc Ki): 897 nM
